From patent publication US11793845B2, “Composition for ameliorating peripheral sensory neuropathy” (KINKI UNIVERSITY, priority 2016, dated 2023) come the findings set out here.

The subject of assay [1] is Peripheral Sensory Neuropathy Induced by Vincristine in Mice. The assay can be described thus: cold plate test, vincristine-induced peripheral sensory neuropathy. Type of assay: in vivo. Conditions: duloxetine 30 mg/kg daily. As to the method: The effect of the Lentinus edodes mycelium extract on the paresthesia to cold stimulation was tested by performing the cold plate test. The mice in the three groups in the above (1) were put on a cold plate set to 10° C. and a response time for avoidance (a latency) was measured. The shorter latency means that the mouse avoids the cold stimulation of the cold plate more.
In the present test, the mice were divided into three groups by a difference in test objects. As in Example 1, male Balb/c mice of 6 to 7 weeks old were used. The mice were divided into a total of three groups, a control group, a vincristine
administration group, and a vincristine and Lentinus edodes mycelium extract administration group (vincristine+Lentinus edodes mycelium extract administration group).
(§1) Vincristine was administered to each mouse once a day at a dose of 0.2 mg/kg. Further, the Lentinus edodes mycelium extract was administered to each mouse once a day at a dose of 2 g/kg.
Evaluation was performed in the same manner as in the test with oxaliplatin in Example 1. Referring to FIG. 6, the horizontal axis indicates the elapsed time after administration (days) and the vertical axis indicates the avoidance response time (seconds). Open circles with a solid line represent the control group. Filled circles with a solid line represent the group in which only vincristine was administered. Open squares with a dash line represent the group in which vincristine and the Lentinus edodes mycelium extract were administered at the same time (vincristine+Lentinus edodes mycelium extract administration group). When the difference with the control group was determined to be significant using a significance level of 5%, the data were marked by “*”.
(§2) In the present test, the mice were divided into six groups by a difference in test objects. As in Example 1, male Balb/c mice of 6 to 7 weeks old were used. […]

For assay [2] the test system is unchanged. The assay can be described thus: von Frey test, vincristine-induced peripheral sensory neuropathy. It counts as in vivo. The settings on record: duloxetine 30 mg/kg daily.
Text: The mice in the three groups in the above (1) were put in a cage and a filament having a strength of 0.16 g was pressed on the plantar surface of the leg to measure the number of times (a score) of avoidance response.
In the present test, the mice were divided into three groups by a difference in test objects. As in Example 1, male Balb/c mice of 6 to 7 weeks old were used. The mice were divided into a total of three groups, a control group, a vincristine administration group, and a vincristine and Lentinus edodes mycelium extract administration group (vincristine+Lentinus edodes mycelium extract administration group).
as §1
Further, the number of times of administration was set to once a week (on Day 0, Day 7, and Day 14) for vincristine and daily (from Day 0 to Day 15) for the Lentinus edodes mycelium extract in both the von Frey test and the cold plate test below.
Evaluation was performed in the same manner as in the test with oxaliplatin in Example 1. Referring to FIG. 5, the horizontal axis indicates an elapsed time after administration (days) and the vertical axis indicates the avoidance response (scores). Open circles with a solid line represent the control group. Filled circles with a solid line represent the group in which only vincristine was administered. Open squares with a dash line represent the group in which vincristine and the Lentinus edodes mycelium extract were administered at the same time (vincristine+Lentinus edodes mycelium extract administration group). When the difference with the control group was determined to be significant using a significance level of 5%, the data were marked by “*”.
as §2

Where [3] appears, read: 3-day delayed after vincristine.
Setting [4] is: 6-day delayed after vincristine.

Consider `CNCC[C@H](Oc1cccc2ccccc12)c1cccs1` [duloxetine], for which the “latency compared with vincristine administration group, cold plate test” value in assay [1] (setting [3]) was “almost the same as that in the vincristine administration group”. In addition, in assay [1] (setting [4]), the “latency, cold plate test” value is “same tendency as that in the duloxetine 3-day delayed administration group”. Also, in assay [2] (setting [3]), the “avoidance score compared with vincristine administration group, von Frey test” value is “almost the same score as that in the vincristine administration group”. Besides, the “avoidance score, von Frey test” value in assay [2] (setting [4]) is on record as “same tendency as that in the duloxetine 3-day delayed administration group”.
